Where two headings read alike, the source gives them in different places.
Experiment: Solubility in water by incremental addition of water until complete solubilization
Type: physicochemical
Conditions: for % Solubility (solids (g)/ final volume (ml)): in water at room temperature, Example 4 samples
Protocol: In Example 4, RA89.95 Stevia starting material was processed through two reflux stages of the industrial embodiment of the invention, and a sample of the final product of the industrial process used as starting material in a stirred wash stage of the laboratory embodiment of the invention. Specifically, 100 kilograms of RA90 Stevia starting material were mixed with 400 liters of 90Et/10W solvent (this experiment was conducted while the starting material assay was still being perfected) and refluxed for 1 hour at 80° C., then cooled (chilled water in tank jacket) and allowed to stand for a minimum of 2 hours with mixture temperature maintained between 4° C. and 20° C. The mixture was filtered through a centrifugal decanter, and the retentate added to 400 liters of 90Et/10W solvent and refluxed for 1 hour at 80° C. The mixture from the second reflux was filtered through a centrifugal decanter. The retentate of the filtering of the second reflux mixture was mixed with water until the volume of the mixture was approximately twice the mass of the retentate (e.g., 350 kg retentate in a total mixture volume of 700 liters). The mixture in water was heated to 80° C. for approximately one hour to purge any residual ethanol from the mixture, then the mixture was spray-dried. There was no reflux in absolute ethanol prior to spray drying. The spray-dried product was weighed and a 0.1 gram sample was analyzed for rebaudioside A content using the HPLC Method described above. Five grams of the spray-dried material was mixed with 20 mls of absolute ethanol in a 100 ml round-bottomed flask and refluxed for 1 hour at 80° C. (“refluxed sample”) and then allowed to cool to room temperature. A second 5 gram sample of the spray-dried material was mixed with 20 mls of absolute ethanol and stirred for 15 minutes at room temperature (“stirred sample”). Both samples were filtered over a Whatman GF/A glass fiber filter (1.6 μm pore size) and the retained solids of both samples were dried in a blower oven at 80° C. until the solids maintained a constant weight. 1 gram each of the refluxed sample and of the stirred sample were placed in 15 ml glass centrifuge tubes. Water was added to each tube in 0.1 ml increments and the mixture thoroughly shaken to ensure maximum solubilization. Incremental aliquots of water were added until complete solubilization was achieved as evidenced by the lack of any observable suspended solids in the solution. The final volume at which complete solubilization occurred in each sample was noted.

| SMILES | % Solubility (solids (g)/ final volume (ml)) | solubility in water | also measured |
| --- | --- | --- | --- |
| C=C1C[C@@]23CC[C@H]4[C@@](C)(CCC[C@@]4(C)C(=O)O[C@@H]4O[C@H](CO)[C@@H](O)[C@H](O)[C@H]4O)[C@@H]2CC[C@]1(O[C@@H]1O[C@H](CO)[C@@H](O)[C@H](O[C@@H]2O[C@H](CO)[C@@H](O)[C@H](O)[C@H]2O)[C@H]1O[C@@H]1O[C@H](CO)[C@@H](O)[C@H](O)[C@H]1O)C3 [1 hour reflux in 100% ethanol, rebaudioside A] | 40% | – | % Solubility (solids (g)/ final volume (ml)) (listed as 1 hour reflux in absolute ethanol): 40% |
| C=C1C[C@@]23CC[C@H]4[C@@](C)(CCC[C@@]4(C)C(=O)O[C@@H]4O[C@H](CO)[C@@H](O)[C@H](O)[C@H]4O)[C@@H]2CC[C@]1(O[C@@H]1O[C@H](CO)[C@@H](O)[C@H](O[C@@H]2O[C@H](CO)[C@@H](O)[C@H](O)[C@H]2O)[C@H]1O[C@@H]1O[C@H](CO)[C@@H](O)[C@H](O)[C@H]1O)C3 [15 minute stir in 100% ethanol, rebaudioside A] | 33% | – | % Solubility (solids (g)/ final volume (ml)) (listed as 15 minute stirred wash in absolute ethanol): 33% |
| C=C1C[C@@]23CC[C@H]4[C@@](C)(CCC[C@@]4(C)C(=O)O[C@@H]4O[C@H](CO)[C@@H](O)[C@H](O)[C@H]4O)[C@@H]2CC[C@]1(O[C@@H]1O[C@H](CO)[C@@H](O)[C@H](O[C@@H]2O[C@H](CO)[C@@H](O)[C@H](O)[C@H]2O)[C@H]1O[C@@H]1O[C@H](CO)[C@@H](O)[C@H](O)[C@H]1O)C3 [Example 6, rebaudioside A] | – | – | solubility in water (at 25° C.): 59.0% |
| C=C1C[C@@]23CC[C@H]4[C@@](C)(CCC[C@@]4(C)C(=O)O[C@@H]4O[C@H](CO)[C@@H](O)[C@H](O)[C@H]4O)[C@@H]2CC[C@]1(O[C@@H]1O[C@H](CO)[C@@H](O)[C@H](O[C@@H]2O[C@H](CO)[C@@H](O)[C@H](O)[C@H]2O)[C@H]1O[C@@H]1O[C@H](CO)[C@@H](O)[C@H](O)[C@H]1O)C3 [No 100% ethanol treatment, rebaudioside A] | 2% | – | % Solubility (solids (g)/ final volume (ml)) (listed as 99.6% Reb A purity product): 2% |
| C=C1C[C@@]23CC[C@H]4[C@@](C)(CCC[C@@]4(C)C(=O)O[C@@H]4O[C@H](CO)[C@@H](O)[C@H](O)[C@H]4O)[C@@H]2CC[C@]1(O[C@@H]1O[C@H](CO)[C@@H](O)[C@H](O[C@@H]2O[C@H](CO)[C@@H](O)[C@H](O)[C@H]2O)[C@H]1O[C@@H]1O[C@H](CO)[C@@H](O)[C@H](O)[C@H]1O)C3 [final product, rebaudioside A] | – | ~33% | – |
| C=C1C[C@@]23CC[C@H]4[C@@](C)(CCC[C@@]4(C)C(=O)O[C@@H]4O[C@H](CO)[C@@H](O)[C@H](O)[C@H]4O)[C@@H]2CC[C@]1(O[C@@H]1O[C@H](CO)[C@@H](O)[C@H](O[C@@H]2O[C@H](CO)[C@@H](O)[C@H](O)[C@H]2O)[C@H]1O[C@@H]1O[C@H](CO)[C@@H](O)[C@H](O)[C@H]1O)C3 [purified rebaudioside A, rebaudioside A] | – | about 33% | – |

Source: patent US20190016747A1, “PURIFIED REBAUDIOSIDE A” (SGF Holdings, LLC, priority 2004, published 2019)
